The results in this text go back to ChEMBL document CHEMBL1155440, “1-(5-carboxyindol-1-yl)propan-2-one inhibitors of human cytosolic phospholipase A(2)alpha with reduced lipophilicity: synthesis, biological activity, metabolic stability, solubility, bioavailability, and topical in vivo activity” (J Med Chem, 2010).

A short description of series [1]: Partition coefficient, log P at 5 mM by reverse phase HPLC analysis. Type of series: physicochemical. The following applies: octanol/water.
Series [2] in a line: Inhibition of TPA-induced cPLA2alpha in human platelets assessed as inhibition of arachidonic acid production after 60 mins by UV-reverse phase HPLC analysis. To be noted: 1 h.
In series [3] the target is T1, 85/88 kDa calcium-independent phospholipase A2 (Rattus norvegicus) (UniProt P97570).
T1 sequence (whole entry): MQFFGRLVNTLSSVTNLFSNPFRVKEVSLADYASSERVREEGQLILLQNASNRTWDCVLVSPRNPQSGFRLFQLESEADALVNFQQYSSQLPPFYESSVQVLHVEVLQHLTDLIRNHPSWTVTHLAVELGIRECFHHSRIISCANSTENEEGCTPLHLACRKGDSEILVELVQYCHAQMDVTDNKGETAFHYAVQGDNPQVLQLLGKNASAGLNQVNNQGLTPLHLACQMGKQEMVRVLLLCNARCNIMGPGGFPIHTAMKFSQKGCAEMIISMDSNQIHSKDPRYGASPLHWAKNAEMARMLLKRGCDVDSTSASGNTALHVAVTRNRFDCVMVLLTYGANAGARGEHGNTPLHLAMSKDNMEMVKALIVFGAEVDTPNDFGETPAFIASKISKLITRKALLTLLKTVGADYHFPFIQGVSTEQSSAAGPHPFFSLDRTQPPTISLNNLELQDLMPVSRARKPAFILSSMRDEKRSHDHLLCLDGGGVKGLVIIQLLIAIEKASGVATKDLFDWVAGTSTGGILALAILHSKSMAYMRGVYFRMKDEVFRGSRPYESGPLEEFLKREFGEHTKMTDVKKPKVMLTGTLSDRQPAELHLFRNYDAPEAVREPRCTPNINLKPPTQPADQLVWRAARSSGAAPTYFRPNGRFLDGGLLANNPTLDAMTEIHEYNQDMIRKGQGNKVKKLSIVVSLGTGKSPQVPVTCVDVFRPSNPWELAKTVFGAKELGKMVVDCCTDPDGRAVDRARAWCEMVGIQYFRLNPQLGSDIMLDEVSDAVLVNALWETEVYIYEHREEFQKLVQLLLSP
The series is described as follows: Inhibition of Sprague-Dawley rat brain iPLA2 assessed as inhibition of substrate cleavage at 10 uM after 60 mins by HPLC analysis.

Series [4] concerns the target Phospholipase A2, major isoenzyme (Sus scrofa) (UniProt P00592). The experiment in a line: Inhibition of pig pancreas group 1B sPLA2 assessed as inhibition of POPG cleavage at 10 uM after 30 mins by HPLC analysis.
Series [5] has as its system Mus musculus. The experiment in a line: Antiinflammatory activity in BALB/c mouse assessed as inhibition of benzalkonium chloride-induced ear edema at 0.1 to 1 mg/ear administered topically after 10 mins of benzalkonium chloride challenge measured after 1 hr of induction of dermatitis. Type of series: functional, organism-based.
Series [6] relates to Mus musculus. The series is described as follows: Antiinflammatory activity in BALB/c mouse assessed as inhibition of benzalkonium chloride-induced ear edema at 0.1 to 1 mg/ear administered topically after 10 mins of benzalkonium chloride challenge measured after 5 hrs of induction of dermatitis. Format: functional, organism-based.
Series [7] deals with Mus musculus. The series is described as follows: Antiinflammatory activity in BALB/c mouse assessed as inhibition of benzalkonium chloride-induced ear edema at 0.1 to 1 mg/ear administered topically after 10 mins of benzalkonium chloride challenge measured after 7 hrs of induction of dermatitis. Format: functional, organism-based.
Series [8] deals with Mus musculus. The series is described as follows: Antiinflammatory activity in BALB/c mouse assessed as inhibition of benzalkonium chloride-induced ear edema at 0.01 mg/ear administered topically after 10 mins of benzalkonium chloride challenge measured after 5 to 7 hrs of induction of dermatitis. Format: functional, organism-based.
For series [9], the system named is Mus musculus. The experiment in a line: Antiinflammatory activity in topically dosed BALB/c mouse assessed as inhibition of benzalkonium chloride-induced ear edema administered after 10 mins of benzalkonium chloride challenge measured after 1 to 7 hrs of induction of dermatitis. Type of series: functional, organism-based.
The subject of series [10] is Mus musculus. The experiment in a line: Antiinflammatory activity in BALB/c mouse assessed as inhibition of benzalkonium chloride-induced ear edema at 0.1 mg/ear administered topically after 10 mins of benzalkonium chloride challenge measured after 7 hrs of induction of dermatitis. Format: functional.
Series [11] relates to Mus musculus. The experiment in a line: Antiinflammatory activity in BALB/c mouse assessed as inhibition of benzalkonium chloride-induced ear edema at 0.005 mg/ear administered topically after 10 mins of benzalkonium chloride challenge measured after 7 hrs of induction of dermatitis. Format: functional.
Series [12] is described as follows: Drug level in C57Bl6 mouse plasma at 10 mg/kg, iv after 5 mins by UV-reverse phase HPLC analysis. Type of series: ADME, organism-based. The arrangement: dose 10 mg/kg, route intravenous. The following applies: read-out: Drug uptake.
Series [13] in a line: Drug level in C57Bl6 mouse plasma at 10 mg/kg, iv after 30 mins by UV-reverse phase HPLC analysis. The following applies: read-out: Drug uptake. The arrangement: dose 10 mg/kg, route intravenous. Type of series: ADME, organism-based.
Series [14] can be described thus: Drug level in C57Bl6 mouse plasma at 100 mg/kg, po after 1 hr by UV-reverse phase HPLC analysis. Format: ADME, organism-based. The arrangement: dose 100 mg/kg, route oral. The following applies: read-out: Drug uptake.
Series [15] can be described thus: Drug level in C57Bl6 mouse plasma at 100 mg/kg, po after 2 hrs by UV-reverse phase HPLC analysis. Also on record: dose 100 mg/kg, route oral. To be noted: read-out: Drug uptake. Format: ADME, organism-based.
Series [16] in a line: Drug level in C57Bl6 mouse plasma at 10 mg/kg, po after 1 hr by UV-reverse phase HPLC analysis. Format: ADME, organism-based. The arrangement: dose 10 mg/kg, route oral. The following applies: read-out: Drug uptake.
Series [17] can be described thus: Drug level in C57Bl6 mouse plasma at 10 mg/kg, po after 2 hrs by UV-reverse phase HPLC analysis. Type of series: ADME, organism-based. Also on record: dose 10 mg/kg, route oral. To be noted: read-out: Drug uptake.
The nature of series [18]: Drug level in C57Bl6 mouse bile at 10 mg/kg, iv after 30 mins by HPLC/MS analysis. Also on record: dose 10 mg/kg, route intravenous. Type of series: ADME, organism-based. The following applies: read-out: Drug uptake.
Series [19] is described as follows: Drug level in C57Bl6 mouse bile at 100 mg/kg, po after 2 hrs by HPLC/MS analysis. Type of series: ADME, organism-based. The arrangement: dose 100 mg/kg, route oral. The following applies: read-out: Drug uptake.

SMILES strings stand for the structures. Calls of active or inactive are those of the source. The rule behind the calls is not given here.

Phospholipase A2, major isoenzyme (Sus scrofa), sequence (P00592 23-146 limits assumed): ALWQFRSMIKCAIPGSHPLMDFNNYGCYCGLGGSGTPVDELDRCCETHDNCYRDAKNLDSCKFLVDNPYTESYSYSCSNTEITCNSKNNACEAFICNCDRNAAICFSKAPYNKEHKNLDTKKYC

`CC(C)C(=O)c1cn(CC(=O)COc2ccc(Oc3ccccc3)cc2)c2ccc(C(=O)O)cc12` returned a logP at 5000 µM in [1] of 3.5. In [2], the 50% inhibitory concentration (IC50) was found to be 15 nM. The inhibition result (in series [3]; in [4]; in the series with Mus musculus [8]) was “inactive” each time. The inhibition entry in the series on Mus musculus [5], in the series with Mus musculus [6] and in the series with Mus musculus [7] was “Active” each time. Also, the inhibition entry with Mus musculus [9] was “Dose-dependent effect”. The entries for the “inhibition (INH)” value in the series with Mus musculus [10] and in the series with Mus musculus [11] were 84% and 90%, respectively.
For the compound `CC(C)C(=O)c1cn(CC(O)COc2ccc(Oc3ccccc3)cc2)c2ccc(C(=O)O)cc12` (centres undefined), in series [12], the concentration at 5 min came out at 6200 ng/mL. For the same compound, the values for the concentration at 0.5 h in series [13] and in series [18] were 500 ng/mL and 96000 ng/mL, respectively. Besides, the values for the concentration at 1 h in series [14] and in series [16] were 1700 ng/mL and 42000 ng/mL, respectively. In addition, the concentration at 2 h came out at 300 ng/mL in series [15], 34000 ng/mL in [17] and 42000 ng/mL in series [19].
